Assay results from patent US20050106262A1, “Pharmaceutical composition comprising arsenite for the treatment of malignancy” (Korea Microbiological Laboratories, Ltd., priority 2002, published 2005).

Tests used:
RXF486L = assay: modified propidium iodide cytotoxicity assay, renal tumour cell line; type: cell-based, human; details: 4 days of incubation
Description: (§1) Various human tumor cells were grown at 37° C. in a humidified atmosphere (95% air, 5% CO2) in monolayer cultures in RPMI 1640 medium with phenol red (Life Technologies, Karlsruhe, Germany) supplemented with 10% fetal calf serum. Cells were trypsinized and maintained weekly.
(§2) A modified propidium iodide assay (based on W. A. Dengler et. al, Anti-Cancer Drugs, 6, pp. 522-532 (1995)) was used to examine the antiproliferative activity of the study compounds. Briefly, cells will be harvested from exponential phase cultures growing in RPMI 1640 medium supplemented with 10% fetal calf serum by trypsination, counted and plated in 96 well flat-bottomed microtiter plates (140 μl cell suspension, 8×10^4 cells/ml). […] After thawing of the plates, fluorescence was measured using a Millipore Cytofluor 2350-microplate reader (excitation 530 nm, emission 620 nm) in order to quantify the total cell number. […]
(§3) Growth inhibition is expressed as Treated/Control×100 (or T/C %). IC50 and IC70 values were determined by plotting compound concentration versus cell number. Mean IC50 and IC70 values were calculated according to the formula: [formula]
(§4) With x=specific tumor cell line and n=total number of cell lines studied. If IC50 or IC70 could not be determined within the examined dose range, the lowest or highest concentration studied was used for the calculation.

promyelocytic leukaemia = assay: modified propidium iodide cytotoxicity assay, promyelocytic leukaemia (comparison); type: cell-based, human
Description: as §1, §2, §3, §4

DLD1 = assay: modified propidium iodide cytotoxicity assay, colon tumour cell line; type: cell-based, human; details: Colon tumour cell line DLD1, 4 days of incubation
Description: as §1, §2, §3, §4

OVCAR3 = assay: modified propidium iodide cytotoxicity assay, ovarian tumour cell line; type: cell-based, human; details: Ovarian tumour cell line OVCAR3, 4 days of incubation
Description: as §1, §2, §3, §4

GXF251L = assay: modified propidium iodide cytotoxicity assay, gastric tumour cell line; type: cell-based, human; details: 4 days of incubation
Description: as §1, §2, §3, §4

PC3 = assay: modified propidium iodide cytotoxicity assay, prostate tumour cell line; type: cell-based, human; details: Prostate tumour cell line PC3, 4 days of incubation
Description: as §1, §2, §3, §4

MXAF401NL = assay: modified propidium iodide cytotoxicity assay, mammary tumour cell line; type: cell-based, human; details: 4 days of incubation
Description: as §1, §2, §3, §4

Ehrlich ascites tumour = details: cited from earlier work

Substance | IC70 (RXF486L) [µg/mL] | IC70 (promyelocytic leukaemia; promyelocytic leukaemia, comparison) [µg/mL] | sensitivity of the Table I tumour cells relative to promyelocytic leukaemia (promyelocytic leukaemia; ratio of IC70 values, solid tumour cells versus promyelocytic leukaemia) [times] | IC70 (DLD1) [µg/mL] | IC70 (OVCAR3) [µg/mL] | IC70 (GXF251L) [µg/mL] | IC70 (PC3) [µg/mL] | IC70 (MXAF401NL) [µg/mL] | effect on tumour growth (Ehrlich ascites tumour)
salt of meta-arsenite (AsO2^−) [meta-arsenite compound] | 0.63 | 6.82 | 2 to 20 | 0.48 | 3.02 | 3.08 | 0.85 | 0.32 | –
Potassium arsenite | – | – | – | – | – | – | – | – | affected only the growth of Ehrlich ascites tumour
